Results from ChEMBL document CHEMBL6109055, “Naphtho[1,2-b][1,4]diazepinedione-Based P2X4 Receptor Antagonists from Structure-Activity Relationship Studies toward PET Tracer Development” (J Med Chem, 2025).

Tests used:
P2X purinoceptor 4 = P2X purinoceptor 4 (Homo sapiens, UniProt Q99571); assay: Antagonist activity at human P2X4 receptor overexpressed in human 1321N1 cells assessed as inhibition of ATP-induced calcium responses by Fluo-4 AM/Ca2+ Flux assay; format: cell-based
[1] = Lipophilicity, logD of compound in n-octanol and buffer at pH 7.4 by LC-MS analysis; format: physicochemical
[2] = Plasma protein binding in unknown origin; format: ADME, cell-free; settings: read-out: PPB (converted)
[3] = Metabolic stability in C57BL/6 mouse liver microsomes assessed as remaining parent compound by UPLC-UV/MS analysis; format: ADME, Microsome
THP-1 = assay: Inhibition of NLRP3 inflammasome activation in LPS-activated human THP-1 cells assessed as inhibition of LPS/ATP induced IL-1beta secretion at 100 nM preincubated with PMA for 24 hrs followed further stimulated with LPS for 3 hrs and further incubated with compound and ATP for 30 mins by ELISA method; format: cell-based

P2X purinoceptor 4, sequence (Q99571 whole entry): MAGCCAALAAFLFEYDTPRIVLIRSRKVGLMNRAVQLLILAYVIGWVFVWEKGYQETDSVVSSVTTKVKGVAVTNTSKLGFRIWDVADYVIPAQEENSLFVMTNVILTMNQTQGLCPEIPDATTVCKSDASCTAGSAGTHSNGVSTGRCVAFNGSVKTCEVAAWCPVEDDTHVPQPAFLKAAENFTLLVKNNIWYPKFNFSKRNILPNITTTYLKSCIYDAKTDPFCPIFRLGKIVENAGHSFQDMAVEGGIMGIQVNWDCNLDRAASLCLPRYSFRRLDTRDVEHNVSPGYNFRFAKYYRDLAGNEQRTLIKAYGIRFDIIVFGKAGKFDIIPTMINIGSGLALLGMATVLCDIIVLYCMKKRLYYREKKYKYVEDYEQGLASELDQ

Compound	IC50 (P2X purinoceptor 4; read-out: IC50)	further results
CN(c1ccc(N2C(=O)CC(=O)Nc3c2ccc2ccccc32)cc1)S(=O)(=O)c1ccccc1	683 nM	–
O=C1CC(=O)N(c2ccc(NS(=O)(=O)Cc3cc(F)ccc3Cl)cc2)c2ccc3ccccc3c2N1	81 nM	–
O=C1CC(=O)N(c2ccc(NS(=O)(=O)c3cc(F)ccc3Cl)cc2)c2ccc3ccccc3c2N1	135 nM	logD [1]: 3.25; fraction unbound [2]: < 0.02; Stability [3]: 98%
COc1cc(Br)ccc1S(=O)(=O)Nc1ccc(N2C(=O)CC(=O)Nc3c2ccc2ccccc32)cc1	344 nM	–
Cc1cc(F)ccc1CS(=O)(=O)Nc1ccc(N2C(=O)CC(=O)Nc3c2ccc2ccccc32)cn1	14 nM	logD [1]: 2.59; fraction unbound [2]: 0.03; Stability [3]: 67%
Cc1ccccc1S(=O)(=O)Nc1ccc(N2C(=O)CC(=O)Nc3c2ccc2ccccc32)cc1	115 nM	–
O=C1CC(=O)N(c2ccc(NS(=O)(=O)c3ccc(F)cc3Br)cc2)c2ccc3ccccc3c2N1	64 nM	–
Cc1ccc(Cl)c(S(=O)(=O)Nc2ccc(N3C(=O)CC(=O)Nc4c3ccc3ccccc43)cc2)c1	373 nM	–
O=C1CC(=O)N(c2ccc(NS(=O)(=O)Cc3ccccc3Cl)cc2)c2ccc3ccccc3c2N1	–	logD [1]: 3.39; fraction unbound [2]: < 0.02; Stability [3]: 71%
Nc1ccc(N2C(=O)CC(=O)Nc3c2ccc2ccccc32)cn1	9920 nM	–
O=C1CC(=O)N(c2ccc(NS(=O)(=O)Cc3ccc(B(O)O)cc3Cl)cc2)c2ccc3ccccc3c2N1	295 nM	–
Cc1cc(B(O)O)ccc1CS(=O)(=O)Nc1ccc(N2C(=O)CC(=O)Nc3c2ccc2ccccc32)cc1	372 nM	–
O=C1CC(=O)N(c2ccc(NS(=O)(=O)Cc3ccccc3)cc2)c2ccc3ccccc3c2N1	191 nM	–
O=C1CC(=O)N(c2ccc(NS(=O)(=O)c3cccnc3[N+](=O)[O-])cc2)c2ccc3ccccc3c2N1	1000 nM	–
O=C(Cc1cc(Br)ccc1Cl)Nc1ccc(N2C(=O)CC(=O)Nc3c2ccc2ccccc32)cc1	1000 nM	–
O=C1CC(=O)N(c2ccc(NC(=O)c3ccccc3F)cc2)c2ccc3ccccc3c2N1	2300 nM	–
O=C1CC(=O)N(c2ccc(NC(=O)c3cccnc3Cl)cc2)c2ccc3ccccc3c2N1	780 nM	–
O=C1CC(=O)N(c2ccc(NS(=O)(=O)c3cc(C(F)(F)F)ccc3Cl)cc2)c2ccc3ccccc3c2N1	2730 nM	–
O=C1CC(=O)N(c2ccc(NS(=O)(=O)Cc3c(Cl)cccc3Cl)cc2)c2ccc3ccccc3c2N1	74 nM	–
O=C1CC(=O)N(c2ccc(NS(=O)(=O)c3ccccc3F)cc2)c2ccc3ccccc3c2N1	1170 nM	–
COc1cc(F)ccc1S(=O)(=O)Nc1ccc(N2C(=O)CC(=O)Nc3c2ccc2ccccc32)cc1	59 nM	–
O=C1CC(=O)N(c2ccc(NC(=O)c3ccccc3)cc2)c2ccc3ccccc3c2N1	585 nM	–

Compound	IC50 (P2X purinoceptor 4; read-out: IC50)	further results
O=C(Cc1cc(F)ccc1Cl)Nc1ccc(N2C(=O)CC(=O)Nc3c2ccc2ccccc32)cc1	442 nM	–
CN1C(=O)CC(=O)N(c2ccc(N(C)S(=O)(=O)c3ccccc3)cc2)c2ccc3ccccc3c21	> 10000 nM	–
Cc1cc(Br)ccc1CS(=O)(=O)Nc1ccc(N2C(=O)CC(=O)Nc3c2ccc2ccccc32)cc1	97 nM	–
O=C1CC(=O)N(c2ccc(NS(=O)(=O)Cc3ccccc3Cl)cn2)c2ccc3ccccc3c2N1	17 nM	–
COc1ccc(Br)cc1S(=O)(=O)Nc1ccc(N2C(=O)CC(=O)Nc3c2ccc2ccccc32)cc1	2330 nM	–
O=C1CC(=O)N(c2ccc(NC(=O)c3cccnc3[N+](=O)[O-])cc2)c2ccc3ccccc3c2N1	2280 nM	–
O=C1CC(=O)N(c2ccc(NS(=O)(=O)c3ccc(F)cc3)cc2)c2ccc3ccccc3c2N1	24800 nM	–
O=C1CC(=O)N(c2ccccc2)c2ccc3ccccc3c2N1	9280 nM	–
O=C1CC(=O)N(c2ccc(NS(=O)(=O)c3ccc(F)cc3Cl)cc2)c2ccc3ccccc3c2N1	128 nM	logD [1]: 3.55; fraction unbound [2]: < 0.02; Stability [3]: 93%
O=C1CC(=O)N(c2ccc(NS(=O)(=O)c3c(Cl)cccc3Cl)cc2)c2ccc3ccccc3c2N1	650 nM	–
O=C1CC(=O)N(c2ccc(NS(=O)(=O)c3ccc(C(F)(F)F)cc3Cl)cc2)c2ccc3ccccc3c2N1	3390 nM	–
Cc1cccc(Cl)c1S(=O)(=O)Nc1ccc(N2C(=O)CC(=O)Nc3c2ccc2ccccc32)cc1	385 nM	–
Cc1ccc(F)cc1S(=O)(=O)Nc1ccc(N2C(=O)CC(=O)Nc3c2ccc2ccccc32)cc1	179 nM	–
O=C1CC(=O)N(c2ccc(NS(=O)(=O)c3ccc(B(O)O)cc3Cl)cc2)c2ccc3ccccc3c2N1	891 nM	–
COc1ccccc1S(=O)(=O)Nc1ccc(N2C(=O)CC(=O)Nc3c2ccc2ccccc32)cc1	90 nM	–
O=C1CC(=O)N(c2ccc(NC(=O)c3cccnc3F)cc2)c2ccc3ccccc3c2N1	2410 nM	–
CNCC[C@H](Oc1cccc2ccccc12)c1cccs1 [DULOXETINE]	5880 nM	–
COc1ccc(F)cc1S(=O)(=O)Nc1ccc(N2C(=O)CC(=O)Nc3c2ccc2ccccc32)cc1	473 nM	–
O=C1CC(=O)N(c2ccc(NS(=O)(=O)c3ccccc3Cl)cc2)c2ccc3ccccc3c2N1	445 nM	–
Cc1cc(F)ccc1CS(=O)(=O)Nc1ccc(N2C(=O)CC(=O)Nc3c2ccc2ccccc32)nc1	25 nM	logD [1]: 2.36; fraction unbound [2]: 0.05; Stability [3]: 57%
COc1ccc(S(=O)(=O)Nc2ccc(N3C(=O)CC(=O)Nc4c3ccc3ccccc43)cc2)c(Cl)c1	5970 nM	–
N#Cc1ccc(S(=O)(=O)Nc2ccc(N3C(=O)CC(=O)Nc4c3ccc3ccccc43)cc2)c(Cl)c1	14100 nM	–

Compound	IC50 (P2X purinoceptor 4; read-out: IC50)	further results
O=C1CC(=O)N(c2ccc(NS(=O)(=O)Cc3ccc(F)cc3)cc2)c2ccc3ccccc3c2N1	88 nM	–
Cc1cc(F)ccc1CS(=O)(=O)Nc1ccc(N2C(=O)CC(=O)Nc3c2ccc2ccccc32)cc1	–	IC50 (P2X purinoceptor 4; read-out: pIC50 (converted)): 7.59 nM; inhibition (THP-1): Active; Compund More Potent Than Bay1797; fraction unbound [2]: < 0.02; Stability [3]: 64%
O=C1CC(=O)N(c2ccc(NS(=O)(=O)c3cccnc3F)cc2)c2ccc3ccccc3c2N1	1120 nM	IC50 (P2X purinoceptor 4; read-out: pIC50 (converted)): 1100 nM; logD [1]: 1.78; fraction unbound [2]: 0.06; Stability [3]: 95%
O=C1CC(=O)N(c2ccc(NS(=O)(=O)Cc3ccc(Br)cc3Cl)cc2)c2ccc3ccccc3c2N1	531 nM	–
O=C1CC(=O)N(c2ccc(NS(=O)(=O)C3CCCCC3)cc2)c2ccc3ccccc3c2N1	2580 nM	–
Nc1ccc(N2C(=O)CC(=O)Nc3c2ccc2ccccc32)cc1	990 nM	–
COc1ccc(S(=O)(=O)Nc2ccc(N3C(=O)CC(=O)Nc4c3ccc3ccccc43)cc2)cc1	3950 nM	–
O=C1CC(=O)N(c2ccc(NS(=O)(=O)c3cccc4ccccc34)cc2)c2ccc3ccccc3c2N1	1650 nM	–
O=C1CC(=O)N(c2ccc(NS(=O)(=O)Cc3ccc(F)cc3Br)cc2)c2ccc3ccccc3c2N1	76 nM	–
O=C1CC(=O)N(c2ccc(NS(=O)(=O)c3cccnc3Cl)cc2)c2ccc3ccccc3c2N1	318 nM	–
Cc1cc(B(O)O)ccc1S(=O)(=O)Nc1ccc(N2C(=O)CC(=O)Nc3c2ccc2ccccc32)cc1	48 nM	–
O=C1CC(=O)N(c2ccc(NS(=O)(=O)Cc3ccccc3Cl)nc2)c2ccc3ccccc3c2N1	76 nM	–
O=C1CC(=O)N(c2ccc(NS(=O)(=O)c3ccc(Br)cc3Cl)cc2)c2ccc3ccccc3c2N1	1590 nM	–
O=C1CC(=O)N(c2ccc(NS(=O)(=O)Cc3c(F)cccc3Cl)cc2)c2ccc3ccccc3c2N1	108 nM	–
Cc1cc(Br)ccc1S(=O)(=O)Nc1ccc(N2C(=O)CC(=O)Nc3c2ccc2ccccc32)cc1	263 nM	–
Nc1ccc(N2C(=O)CC(=O)Nc3c2ccc2ccccc32)nc1	6460 nM	–
Cc1cc(F)ccc1S(=O)(=O)Nc1ccc(N2C(=O)CC(=O)Nc3c2ccc2ccccc32)cc1	–	inhibition (THP-1): Active; Compund More Potent Than Bay1797; fraction unbound [2]: < 0.02; Stability [3]: 93%
O=C1CC(=O)N(c2ccc(NS(=O)(=O)Cc3ccc(F)cc3Cl)cc2)c2ccc3ccccc3c2N1	23 nM	logD [1]: 3.71; fraction unbound [2]: < 0.02; Stability [3]: 58%
O=C1CC(=O)N(c2ccc(NS(=O)(=O)c3cc(Br)ccc3Cl)cc2)c2ccc3ccccc3c2N1	175 nM	–
O=C1CC(=O)N(c2ccc(NC(=O)c3ccccc3Cl)cc2)c2ccc3ccccc3c2N1	481 nM	–
O=C1CC(=O)N(c2ccc(NS(=O)(=O)c3ccccc3Br)cc2)c2ccc3ccccc3c2N1	240 nM	–
O=C1CC(=O)N(c2ccc(NS(=O)(=O)c3ccccc3I)cc2)c2ccc3ccccc3c2N1	264 nM	–
